Square brackets hold non-standard residues; d marks the D form. Ends that are not written are not given here. Peptide text beside a SMILES is read from it. * marks the point of attachment. Acetyl(2-naphthyl) = O=C(Cc1ccc2ccccc2c1)*
Experiments:
[1] = Proteinase K stability (compound remaining); assay type: in vitro ADME; settings: Tritirachium album (source organism of proteinase K); initial concentration 1.0 mM, 0.1 mg/ml proteinase K, 24 h; read-out: compound remaining after 24 h
Procedure: (§1) Both Nap-GFFY-G-KWYQNMIR (Comp. 1) and Nap-G^DF^DF^DY-G-KWYQNMIR (Comp. 2) could form hydrogels by heating and cooling, namely L-gel and D-gel (Fig. 1A–C). The ultrastructures of the L-gel and D-gel were both nanofibers (Fig. 1D and E). The mechanical properties of the L-gel and D-gel remained relatively constant (Fig. 1F and G). […] The CAC values of the AMG-P8, L-gel and D-gel were 354.91, 84.25 and 86.62 μM, respectively (Fig. 1I and J). […] That was the result of an initial concentration of 1.0 mM AMG-P8 incubated with 0.1 mg/ml of proteinase K for 24 h, whereas the L-gel and D-gel still retained 62.21% and 78.06% of the compound, respectively, after 24 h (Fig. 1K).
(§2) Figure 1. Chemical structures of (A) AMG-P8 (KWYQNMIR); (B) Comp.1 (Nap-GFFYGKWYQNMIR) and (C) Comp.2 (Nap-G^DF^DF^DYGKWYQNMIR). TEM and optical images of (D) L-gel and (E) D-gel. Dynamic frequency and strain sweep measurements of L-gel and D-gel (F, G). (H) Circular dichroism spectra of L-gel and D-gel. Determination of CAC values of L-gel (I) and D-gel (J). (K) Compound remaining of the AMG-P8, L-gel and D-gel for an initial concentration of 1.0 mM incubated with 0.1 mg/ml of proteinase K for 24 h. TEXT PRINTED IN THE PICTURE: (I) L- gel: CAC=84.25 μM | (J) D- gel: CAC=86.62 μM DOUBTS OF THE COPYIST ABOUT THIS PICTURE: L- gel, CAC: small print, 84.25 could be 84.26 or 64.25 / D- gel, CAC: small print, 86.62 could be 88.62 or 86.82

[2] = system: human dental pulp cells (HDPCs); assay type: cell-based
Procedure: The HDPCs (1 × 10^5 cells/well) in the six well plates were treated with basal medium, AMG-P8, L-gel, D-gel, EMPs for 21 days. After fixed in the 4% paraformaldehyde for 15 min, the mineralized nodules were stained with 1% Alizarin Red (Solarbio, Beijing, China) for 10 min and washed in double-distilled water to eliminate floating colors. Images were captured with a Ti-S microscope (Nikon, Japan). For quantitative analysis of calcified nodules, 10% cetylpyridinium chloride (CPC; Sigma, USA) was used to dissolve Alizarin red. One milliliter of 10% CPC per well was added and shook for 30 min. The absorbance value was measured at 560 nm using a multifunctional microplate reader (Tecan Ltd., Männedorf, Switzerland).

[3] = system: human dental pulp cells (HDPCs); assay: Western blot of DSPP, DMP-1 and ALP in HDPCs; assay type: cell-based; settings: D-gel and U0126 for 7 and 14 days, P < 0.05, in words
Procedure: The healthy premolars and third molars extracted for orthodontic or other reasons were collected from patients (14–22 years old) visited Tianjin Stomatological Hospital. This study had been approved by the Ethics Committee of Tianjin Stomatological Hospital (Approval number: 2018012). The informed consent was obtained from each patient. The dental pulp tissue was dissected within 4 h after tooth extraction, minced into 1 mm^3 pieces with sterile scissors and transferred to a cell culture flask containing alpha-modified Eagle’s medium (α-MEM, Gibco, California, USA) supplemented with 10% fetal bovine serum (FBS, Gibco, New York, NY, USA), 100 U/ml penicillin and 100 μg/ml streptomycin (PS, Sigma, California, USA). The cells were cultured in a 5% CO2 incubator at 37°C. The HDPCs at 3–4 passage were used in this study.
The HDPCs (2 × 10^5) were treated under different conditions for different time points. The EMPs (1 µM) were also added to the HDPCs as an extra control group. Then the cells were harvested and lysed in 200 µL lysis buffer (Beyotime, Shanghai, China) and centrifuged (12 000 rpm for 10 min, at 4°C). The protein concentration was evaluated with a BCA kit (Solarbio, Beijing, China). The protein was mixed with 5× loading buffer and heated at 95°C for 5 min, separated by precast PAGE gel (Beyotime, Shanghai, China) and transferred to polyvinylidene fluoride membranes. […]

[4] = system: MAPK-ERK1/2 pathways in HDPCs; assay: Western blot of phospho-ERK1/2 in HDPCs; assay type: cell-based, human; settings: 10 µM inhibitor pretreatment 1 h then D-gel 1 h, P < 0.05, in words
Procedure: The HDPCs (2 × 10^5) were treated under different conditions for different time points. The EMPs (1 µM) were also added to the HDPCs as an extra control group. Then the cells were harvested and lysed in 200 µL lysis buffer (Beyotime, Shanghai, China) and centrifuged (12 000 rpm for 10 min, at 4°C). The protein concentration was evaluated with a BCA kit (Solarbio, Beijing, China). The protein was mixed with 5× loading buffer and heated at 95°C for 5 min, separated by precast PAGE gel (Beyotime, Shanghai, China) and transferred to polyvinylidene fluoride membranes. After blocked at room temperature for 15 min, then incubated with the primary antibody (DSPP, DMP-1, Smad2/3, c jun, p-c jun, c fos, p-c fos, c jun B) (Santa Cruz, California, USA), [p-ERK1/2, ERK1/2, alkaline phosphatase (ALP), p-Smad2/3, GAPDH] (Beyotime, Shanghai, China). Then, the membranes were incubated with the goat anti-rabbit IgG-HRP secondary antibody or goat anti-mouse IgG-HRP secondary antibody for 1 h, respectively. Then, an ultrasensitive chemiluminescence kit (Beyotime, Shanghai, China) was used to detect the protein bands. A chemiluminescence imager (Bio-Rad, California, USA) was used to scan the protein bands. The Image Lab software was used to analyze the relative protein expression levels. […]

[5] = target: proteinase K (Parengyodontium album, UniProt P06873); assay: Proteinase K stability (compound remaining); assay type: in vitro ADME; settings: initial concentration 1.0 mM, 0.1 mg/ml proteinase K
Procedure: as §1, §2

[6] = Solubility of the peptide; assay type: physicochemical; settings: in words

Sequence of proteinase K (P06873 106-384, species assumed): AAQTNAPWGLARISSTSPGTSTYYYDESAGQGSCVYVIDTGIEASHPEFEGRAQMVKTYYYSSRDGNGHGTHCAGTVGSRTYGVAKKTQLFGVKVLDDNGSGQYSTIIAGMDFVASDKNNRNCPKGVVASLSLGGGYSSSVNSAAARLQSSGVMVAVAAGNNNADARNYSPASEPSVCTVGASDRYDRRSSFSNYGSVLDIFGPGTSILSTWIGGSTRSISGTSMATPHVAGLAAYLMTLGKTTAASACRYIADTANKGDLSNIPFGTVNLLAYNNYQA

CC[C@H](C)[C@H](NC(=O)[C@H](CCSC)NC(=O)[C@H](CC(N)=O)NC(=O)[C@H](CCC(N)=O)NC(=O)[C@H](Cc1ccc(O)cc1)NC(=O)[C@H](Cc1c[nH]c2ccccc12)NC(=O)[C@H](CCCCN)NC(=O)CNC(=O)[C@@H](Cc1ccc(O)cc1)NC(=O)[C@@H](Cc1ccccc1)NC(=O)[C@@H](Cc1ccccc1)NC(=O)CNC(=O)Cc1ccc2ccccc2c1)C(=O)N[C@@H](CCCNC(=N)N)C(=O)O [D-gel] ({Acetyl(2-naphthyl)}-G[dF][dF][dY]GKWYQNMIR-OH)
remaining at 24 h, 1 mM [1]: 78.1% | Alizarin red OD value as percent of the EMPs group [2]: about 80%

CC[C@H](C)[C@H](NC(=O)[C@H](CCSC)NC(=O)[C@H](CC(N)=O)NC(=O)[C@H](CCC(N)=O)NC(=O)[C@H](Cc1ccc(O)cc1)NC(=O)[C@H](Cc1c[nH]c2ccccc12)NC(=O)[C@H](CCCCN)NC(=O)CNC(=O)[C@H](Cc1ccc(O)cc1)NC(=O)[C@H](Cc1ccccc1)NC(=O)[C@H](Cc1ccccc1)NC(=O)CNC(=O)Cc1ccc2ccccc2c1)C(=O)N[C@@H](CCCNC(=N)N)C(=O)O [L-gel] ({Acetyl(2-naphthyl)}-GFFYGKWYQNMIR-OH)
remaining at 24 h, 1 mM [1]: 62.2%

N#CC(=C(/N)Sc1ccccc1N)/C(C#N)=C(/N)Sc1ccccc1N [U0126]
effect on D-gel-induced expression of DSPP and ALP [3]: suppressed | effect on D-gel-induced phospho-ERK1/2 upregulation [4]: specifically blocked

KWYQNMIR [AMG-P8]
time within which the peptide was hydrolyzed [5]: ≤ 30 min | solubility [6]: good solubility

— paper PMC9348551, “An amelogenin-based peptide hydrogel promoted the odontogenic differentiation of human dental pulp cells” (Regenerative Biomaterials, 2022)
